These results are taken from ChEMBL document CHEMBL4304797, “Discovery of GSK2798745: A Clinical Candidate for Inhibition of Transient Receptor Potential Vanilloid 4 (TRPV4)” (ACS Med Chem Lett, 2019).

The nature of data set [1]: Unbound clearance in Sprague-Dawley rat. It counts as ADME. The settings on record: in vivo.
For data set [2], the target named is Transient receptor potential cation channel subfamily V member 4 (Homo sapiens, UniProt Q9HBA0). The data set is described as follows: Inhibition of human TRPV4 expressed in baculovirus infected HEK/MSR 2 cells pre-incubated for 10 mins followed by GSK634775A addition by Fura-2 dye based FLIPR assay.
A short description of data set [3]: Lipophilicity, chromatographic logD of compound at pH 7.4. To be noted: buffer.
Data set [4] in a line: Unbound fraction in Sprague-Dawley rat plasma. It counts as ADME, cell-free.
A short description of data set [5]: Volume of distribution at steady state in Sprague-Dawley rat at 1 mg/kg, iv measured after 24 hrs by HPLC-MS/MS analysis. Format: ADME, organism-based. The settings on record: in vivo, read-out: Vdss.
Data set [6] in a line: Mean residence time in Sprague-Dawley rat at 1 mg/kg, iv measured after 24 hrs by HPLC-MS/MS analysis. To be noted: in vivo. Format: ADME, organism-based.
The nature of data set [7]: Clearance in Sprague-Dawley rat at 1 mg/kg, iv measured after 24 hrs by HPLC-MS/MS analysis. Format: ADME, organism-based. The settings on record: in vivo.
Data set [8] can be described thus: Oral bioavailability in Sprague-Dawley rat at 2 mg/kg measured after 24 hrs by HPLC-MS/MS analysis. It counts as ADME, organism-based. To be noted: in vivo.
The nature of data set [9]: Unbound volume of distribution at steady state in Sprague-Dawley rat. Format: ADME. The settings on record: in vivo.
In data set [10] the target is Transient receptor potential cation channel subfamily V member 4 (Rattus norvegicus, UniProt Q9ERZ8). In words: Inhibition of rat TRPV4 expressed in baculovirus infected HEK/MSR 2 cells pre-incubated for 10 mins followed by GSK634775A addition by Fura-2 dye based FLIPR assay.

Bounds are passed on as bounds.

Sequence of Transient receptor potential cation channel subfamily V member 4 (Homo sapiens, UniProt Q9HBA0) (Q9HBA0 whole entry): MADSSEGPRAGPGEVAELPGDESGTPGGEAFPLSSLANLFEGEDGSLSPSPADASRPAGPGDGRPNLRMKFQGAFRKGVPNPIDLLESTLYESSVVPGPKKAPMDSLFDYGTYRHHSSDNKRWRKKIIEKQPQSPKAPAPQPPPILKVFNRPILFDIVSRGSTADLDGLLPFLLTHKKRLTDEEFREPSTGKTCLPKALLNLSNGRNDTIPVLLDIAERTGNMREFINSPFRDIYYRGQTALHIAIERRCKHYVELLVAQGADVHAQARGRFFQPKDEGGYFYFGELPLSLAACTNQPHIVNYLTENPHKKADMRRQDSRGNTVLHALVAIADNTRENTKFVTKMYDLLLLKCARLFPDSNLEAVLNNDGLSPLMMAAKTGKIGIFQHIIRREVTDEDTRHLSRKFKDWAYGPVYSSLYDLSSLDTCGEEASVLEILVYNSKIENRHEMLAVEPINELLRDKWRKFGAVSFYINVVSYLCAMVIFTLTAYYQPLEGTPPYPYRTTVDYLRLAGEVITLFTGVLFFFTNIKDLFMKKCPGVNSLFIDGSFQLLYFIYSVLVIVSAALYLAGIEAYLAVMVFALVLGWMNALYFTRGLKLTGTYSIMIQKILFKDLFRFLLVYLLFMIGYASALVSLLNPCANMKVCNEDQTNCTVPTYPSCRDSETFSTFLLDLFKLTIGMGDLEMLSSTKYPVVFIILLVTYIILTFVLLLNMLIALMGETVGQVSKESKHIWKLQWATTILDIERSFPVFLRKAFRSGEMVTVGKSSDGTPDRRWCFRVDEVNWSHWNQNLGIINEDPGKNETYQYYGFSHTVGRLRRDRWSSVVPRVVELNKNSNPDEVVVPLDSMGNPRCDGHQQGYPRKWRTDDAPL
Sequence of Transient receptor potential cation channel subfamily V member 4 (Rattus norvegicus, UniProt Q9ERZ8) (Q9ERZ8 whole entry): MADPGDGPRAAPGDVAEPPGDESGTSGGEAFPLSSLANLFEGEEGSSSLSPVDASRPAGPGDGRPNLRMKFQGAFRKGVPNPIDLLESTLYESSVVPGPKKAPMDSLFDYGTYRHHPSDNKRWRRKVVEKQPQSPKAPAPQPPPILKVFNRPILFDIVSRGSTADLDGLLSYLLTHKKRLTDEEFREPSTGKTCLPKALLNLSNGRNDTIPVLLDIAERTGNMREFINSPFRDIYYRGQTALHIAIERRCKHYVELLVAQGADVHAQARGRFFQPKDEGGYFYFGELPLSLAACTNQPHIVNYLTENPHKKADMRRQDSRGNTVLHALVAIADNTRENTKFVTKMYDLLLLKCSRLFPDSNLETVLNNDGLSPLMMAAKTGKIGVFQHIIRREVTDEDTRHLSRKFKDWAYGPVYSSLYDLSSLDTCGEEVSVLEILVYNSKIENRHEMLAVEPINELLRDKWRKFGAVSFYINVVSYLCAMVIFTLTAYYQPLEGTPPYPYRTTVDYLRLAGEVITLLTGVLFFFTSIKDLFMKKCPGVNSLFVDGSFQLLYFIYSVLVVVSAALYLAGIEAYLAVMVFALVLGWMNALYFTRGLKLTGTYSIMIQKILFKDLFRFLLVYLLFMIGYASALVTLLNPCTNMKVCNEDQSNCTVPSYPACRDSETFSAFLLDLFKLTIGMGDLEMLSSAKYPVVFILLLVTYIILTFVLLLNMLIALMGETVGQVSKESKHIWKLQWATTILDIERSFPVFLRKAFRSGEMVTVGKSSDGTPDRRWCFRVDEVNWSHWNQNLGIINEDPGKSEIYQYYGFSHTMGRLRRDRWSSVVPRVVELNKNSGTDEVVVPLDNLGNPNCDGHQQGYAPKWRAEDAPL

`COc1cnc(N2C[C@@]3(CCC[C@](C)(Cn4cnc5ccc(C#N)cc54)C3)OC2=O)cn1`: the CL free in data set [1] stood at 400 mL/min/kg. In [2], this molecule came in with a concentration for half-maximal inhibition (IC50) of 14 nM. Besides, the ChromLogD in data set [3] was determined as 4.8.

As to `Cc1cnc(N2C[C@@]3(CCC[C@](C)(Cn4cnc5ccc(C#N)cc54)C3)OC2=O)cn1`, in [2], it took 60 nM to reach half-maximal inhibition (IC50). The same molecule gave a ChromLogD in [3] of 4.2.

In turn, `COc1ccccc1N1C[C@@]2(CCC[C@H](Cn3cnc4ccc(C#N)cc43)C2)OC1=O` had a half-maximal inhibitory concentration (IC50) in data set [2] of 340 nM. The molecule also registered a ChromLogD in data set [3] of 4.2.

In the case of `C[C@]1(Cn2cnc3ccc(C#N)cc32)CCC[C@@]2(CN(c3cccc(Cl)c3)C(=O)O2)C1`, the half-inhibitory concentration (IC50) in data set [2] came out at 48 nM. The same molecule showed a ChromLogD in data set [3] of 5.7.

In data set [4], `CC(C)(C)CN1C[C@@]2(CCC[C@](C)(Cn3cnc4ccc(C#N)cc43)C2)OC1=O` registered an unbound share (fraction unbound) of 0.14. In addition, the Vd in data set [5] amounted to 2.1 L/kg. Besides, in [6], the mean residence time MRT is 0.5 h. In data set [7], this molecule came in with a clearance of 63 mL/min/kg. The same molecule came in with a CL free in data set [1] of 450 mL/min/kg. Also, the bioavailability in data set [8] amounted to 32%. Besides, the midpoint of inhibition in [2], the IC50, lay at 0.5 nM. This molecule had a ChromLogD in data set [3] of 4.6.

The molecule `CCOc1cnc(N2C[C@@]3(CCC[C@](C)(Cn4cnc5ccc(C#N)cc54)C3)OC2=O)cn1` had a fraction unbound in [4] of 0.037. Moreover, the Vd in [5] was 5.4 L/kg. Also, in data set [6], the mean residence time (MRT) turned out to be 5.2 h. Besides, the clearance in data set [7] came to 17 mL/min/kg. In addition, the CL free in data set [1] came to 460 mL/min/kg. The molecule further yielded a bioavailability in [8] of 100%. In data set [2], this molecule gave a half-maximal inhibitory concentration (IC50) of 4.2 nM. Moreover, in data set [3], the ChromLogD worked out at 5.5.

For the molecule `CCOc1ccc(N2C[C@@]3(CCC[C@H](Cn4cnc5ccc(C#N)cc54)C3)OC2=O)cc1`, the IC50 in data set [2] amounted to 140 nM. In addition, the ChromLogD in [3] was 4.8.

In data set [2], `C[C@]1(Cn2cnc3ccc(C#N)cc32)CCC[C@@]2(CN(c3ccccc3Cl)C(=O)O2)C1` displayed an IC50 of 2.5 nM. For the same molecule, the ChromLogD in [3] was 4.8.

Regarding `CCOc1ccc(N2C[C@@]3(CCC[C@](C)(Cn4cnc5ccc(C#N)cc54)C3)OC2=O)nn1`, the mean residence time MRT in [6] was 1.9 h. The clearance in data set [7] came to 14 mL/min/kg. In data set [2], this molecule showed a half-inhibitory concentration (IC50) of 60 nM.

`N#Cc1ccc2ncn(C[C@H]3CCC[C@]4(C3)CN(c3ccccc3F)C(=O)O4)c2c1`: the IC50 in data set [2] was found to be 540 nM. The ChromLogD in data set [3] came out at 4.2.

Molecule `COc1ccccc1N1C[C@@]2(CCC[C@](C)(Cn3cnc4ccc(C#N)cc43)C2)OC1=O` returned an unbound share (fraction unbound) in data set [4] of 0.036. The Vd in data set [5] came out at 1.4 L/kg. The same molecule displayed a mean residence time MRT in data set [6] of 1 h. This molecule also yielded a clearance in data set [7] of 26 mL/min/kg. This molecule came in with a CL free in [1] of 720 mL/min/kg. The molecule also displayed a bioavailability in data set [8] of 100%. This molecule yielded an IC50 in [2] of 1.2 nM. The ChromLogD in data set [3] is recorded as 4.6.

The molecule `CCOc1cccc(N2C[C@@]3(CCC[C@](C)(Cn4cnc5ccc(C#N)cc54)C3)OC2=O)c1` registered an IC50 in data set [2] of 1.6 nM. Also, the ChromLogD in data set [3] was determined as 5.3.

In the case of `N#Cc1ccc2ncn(C[C@H]3CCC[C@]4(C3)CN(c3ccccc3Cl)C(=O)O4)c2c1`, the IC50 in data set [2] is 63 nM. Besides, the ChromLogD in data set [3] worked out at 4.3.

In turn, `C[C@]1(Cn2cnc3ccc(C#N)cc32)CCC[C@@]2(CN(c3cnc(C4CC4)cn3)C(=O)O2)C1` registered a CL free in [1] of 340 mL/min/kg. This molecule displayed an IC50 in data set [2] of 1.5 nM. The molecule further displayed a ChromLogD in [3] of 5.3.

Molecule `Cc1ccccc1N1C[C@@]2(CCC[C@](C)(Cn3cnc4ccc(C#N)cc43)C2)OC1=O` showed an IC50 in [2] of 1.7 nM. This molecule showed a ChromLogD in data set [3] of 4.8.

In the case of `C[C@]1(Cn2cnc3ccc(C#N)cc32)CCC[C@@]2(CN(c3ccccc3)C(=O)O2)C1`, the IC50 in data set [2] was 49 nM.

In [4], `CC(C)(C)CN1C[C@@]2(CCC[C@H](Cn3cnc4ccc(C#N)cc43)C2)OC1=O` gave a fraction unbound of 0.32. Also, the Vd in data set [5] is 2.6 L/kg. Moreover, the mean residence time MRT in [6] is 0.7 h. The molecule further yielded a Vduss in data set [9] of 8.1 L/kg. The same molecule returned a clearance in data set [7] of 64 mL/min/kg. In data set [1], the CL free came to 200 mL/min/kg. In data set [8], this molecule returned a bioavailability of 63%. Besides, the results for the half-inhibitory concentration (IC50) in data set [10] and in [2] were 5.5 nM and 16 nM, respectively. In [3], this molecule came in with a ChromLogD of 4.5.

As for `N#Cc1ccc2ncn(C[C@H]3CCC[C@]4(C3)CN(c3ccccc3)C(=O)O4)c2c1`, inhibition in [2] was half-maximal at 820 nM (IC50). In data set [3], this molecule registered a ChromLogD of 4.6.

`CCOc1cccc(N2C[C@@]3(CCC[C@H](Cn4cnc5ccc(C#N)cc54)C3)OC2=O)c1` yielded a half-inhibitory concentration (IC50) in data set [2] of 74 nM. The ChromLogD in data set [3] is given as 5.

Take `C[C@]1(Cn2cnc3ccc(C#N)cc32)CCC[C@@]2(CN(c3ccccc3F)C(=O)O2)C1`: the IC50 in data set [2] is 5.2 nM. In data set [3], this molecule showed a ChromLogD of 4.9.

Molecule `Cc1ccccc1N1C[C@@]2(CCC[C@H](Cn3cnc4ccc(C#N)cc43)C2)OC1=O` yielded an IC50 in [2] of 310 nM. The molecule also registered a ChromLogD in data set [3] of 4.6.

For the molecule `CCOc1ccc(N2C[C@@]3(CCC[C@](C)(Cn4cnc5ccc(C#N)cc54)C3)OC2=O)cc1`, the Vd in data set [5] is 7.2 L/kg. For the same molecule, the mean residence time MRT in data set [6] was found to be 0.9 h. The clearance in data set [7] came to 140 mL/min/kg. The bioavailability in [8] came to 29%. Moreover, the concentration for half-maximal inhibition (IC50) in data set [2] is 5.2 nM. In [3], this molecule yielded a ChromLogD of 5.4.

Molecule `N#Cc1ccc2ncn(C[C@H]3CCC[C@]4(C3)CN(c3cccc(Cl)c3)C(=O)O4)c2c1` had an IC50 in [2] of 240 nM. The ChromLogD in data set [3] is listed as 5.3.

In turn, `CCOc1ccc(N2C[C@@]3(CCC[C@](C)(Cn4cnc5ccc(C#N)cc54)C3)OC2=O)cn1` registered a fraction unbound in data set [4] of 0.031. Besides, the mean residence time (MRT) in [6] was found to be 1.6 h. The molecule also gave a clearance in data set [7] of 24 mL/min/kg. The molecule further came in with a half-inhibitory concentration (IC50) in data set [2] of 3.1 nM.

`CC(C)(C)c1cnc(N2C[C@@]3(CCC[C@](C)(Cn4cnc5ccc(C#N)cc54)C3)OC2=O)cn1`: half-maximal inhibition in data set [2] (IC50) required 1.2 nM. The molecule also showed a ChromLogD in [3] of 6.3.

`C[C@]1(Cn2cnc3ccc(C#N)cc32)CCC[C@@]2(CN(c3ccc(F)cc3)C(=O)O2)C1`: the Vd in [5] worked out at 6.5 L/kg. The molecule further registered a mean residence time MRT in data set [6] of 2.8 h. In data set [7], this molecule yielded a clearance of 39 mL/min/kg. In addition, the bioavailability in data set [8] stood at 100%. The midpoint of inhibition in data set [2], the IC50, lay at 96 nM. In addition, the ChromLogD in data set [3] worked out at 4.9.

Consider `N#Cc1ccc2ncn(C[C@H]3CCC[C@]4(C3)CN(c3ccc(F)cc3)C(=O)O4)c2c1` (racemic), for which, in data set [4], the fraction unbound came to 0.065. Further, in [5], the Vd was determined as 4 L/kg. Also, in data set [6], the mean residence time MRT was determined as 3.1 h. The molecule further came in with a Vduss in data set [9] of 61 L/kg. This molecule displayed a clearance in data set [7] of 23 mL/min/kg. Moreover, in data set [1], the CL free is 350 mL/min/kg. Further, in data set [8], the bioavailability was found to be 100%. Further, the concentration for half-maximal inhibition (IC50) in data set [2] was determined as 1900 nM. This molecule also yielded a ChromLogD in data set [3] of 4.5.

With `CC(C)(C)CN1C[C@@]2(CCC[C@H](C(C)(C)n3cnc4ccc(C#N)cc43)C2)OC1=O` (racemic), the Vd in [5] was found to be 1.1 L/kg. For the same molecule, the MRT in data set [6] is 0.3 h. Besides, the clearance in [7] stood at 70 mL/min/kg. The bioavailability in [8] amounted to 8%. The molecule also showed an IC50 in data set [2] of more than 25000 nM. For the same molecule, the ChromLogD in data set [3] was found to be 4.6.

As to `CC(C)(C)N1C[C@@]2(CCC[C@H](Cn3cnc4ccc(C#N)cc43)C2)OC1=O` (racemic), the Vd in [5] was found to be 1.8 L/kg. The MRT in data set [6] was found to be 0.5 h. The molecule also gave a clearance in data set [7] of 55 mL/min/kg. This molecule also yielded a bioavailability in data set [8] of 44%. For the same molecule, in data set [2], the half-maximal inhibitory concentration (IC50) was 5200 nM. For the same molecule, the ChromLogD in [3] worked out at 4.

In data set [4], `CC(C)(O)c1cnc(N2C[C@@]3(CCC[C@](C)(Cn4cnc5ccc(C#N)cc54)C3)OC2=O)cn1` [GSK2798745] showed a fraction unbound of 0.082. Further, the Vd in data set [5] was found to be 1.9 L/kg. In addition, the MRT in data set [6] turned out to be 4.9 h. This molecule registered a clearance in data set [7] of 6.5 mL/min/kg. Further, the CL free in [1] stood at 79 mL/min/kg. The molecule also showed a bioavailability in data set [8] of 59%. Moreover, the IC50 is 1.6 nM in data set [10] and 1.8 nM in data set [2]. The ChromLogD in data set [3] was found to be 4.
